# Reference: ChEMBL document CHEMBL1151757, “Synthesis, radiosynthesis, and biological evaluation of fluorine-18-labeled 2beta-carbo(fluoroalkoxy)-3beta-(3'-((Z)-2-haloethenyl)phenyl)nortropanes: candidate radioligands for in vivo imaging of the serotonin transporter with positron emission tomography” (J Med Chem, 2008)
# Test system: not listed separately
# Test: Ratio of drug uptake in medulla to cerebellum in anesthetized cynomolgus monkey after 0.5 mins postinjection
# Type: ADME, organism-based, Macaca fascicularis
# Details: in vivo
row,Compound,Ratio
1,O=C(OCC[18F])C1C2CCC(CC1c1cccc(/C=C\I)c1)N2 (centres undefined),1.6

# Test system: not listed separately
# Test: Ratio of drug uptake in midbrain to cerebellum in anesthetized cynomolgus monkey after 145 mins postinjection
# Type: ADME, organism-based, Macaca fascicularis
# Details: in vivo
row,Compound,Ratio
1,O=C(OCC[18F])C1C2CCC(CC1c1cccc(/C=C\I)c1)N2 (centres undefined),2.1

# Test system: Midbrain
# Test: Drug uptake in anesthetized cynomolgus monkey brain midbrain after 225 mins postinjection
# Type: ADME, organism-based, Macaca fascicularis
# Details: in vivo, 3.75 h
row,Compound,Drug uptake
1,O=C(OCC[18F])C1C2CCC(CC1c1cccc(/C=C\I)c1)N2 (centres undefined),2.99

# Test system: Putamen
# Test: Drug uptake in anesthetized cynomolgus monkey brain putamen after 215 mins postinjection
# Type: ADME, organism-based, Macaca fascicularis
# Details: in vivo
row,Compound,Drug uptake
1,O=C(OCC[18F])C1C2CCC(CC1c1cccc(/C=C\I)c1)N2 (centres undefined),2.53

# Test system: not listed separately
# Test: Ratio of drug uptake in caudate to cerebellum in anesthetized cynomolgus monkey after 9.5 mins postinjection
# Type: ADME, organism-based, Macaca fascicularis
# Details: in vivo
row,Compound,Ratio
1,O=C(OCC[18F])C1C2CCC(CC1c1cccc(/C=C\I)c1)N2 (centres undefined),0.7

# Test system: not listed separately
# Test: Ratio of drug uptake in putamen to cerebellum in anesthetized cynomolgus monkey after 215 mins postinjection
# Type: ADME, organism-based, Macaca fascicularis
# Details: in vivo
row,Compound,Ratio
1,O=C(OCC[18F])C1C2CCC(CC1c1cccc(/C=C\I)c1)N2 (centres undefined),1.8

# Test system: Midbrain
# Test: Drug uptake in anesthetized cynomolgus monkey brain midbrain after 95 mins postinjection
# Type: ADME, organism-based, Macaca fascicularis
# Design: unit not given here
# Details: in vivo
row,Compound,Drug uptake
1,O=C(OCC[18F])C1C2CCC(CC1c1cccc(/C=C\I)c1)N2 (centres undefined),4.55

# Test system: Caudate
# Test: Drug uptake in anesthetized cynomolgus monkey brain caudate after 35 mins postinjection
# Type: ADME, organism-based, Macaca fascicularis, Caudate nucleus
# Details: in vivo
row,Compound,Drug uptake
1,O=C(OCC[18F])C1C2CCC(CC1c1cccc(/C=C\I)c1)N2 (centres undefined),3.54

# Test system: not listed separately
# Test: Drug uptake in anesthetized cynomolgus monkey brain frontal lobe after 2.5 mins postinjection
# Type: ADME, organism-based, Macaca fascicularis
# Details: in vivo
row,Compound,Drug uptake
1,O=C(OCC[18F])C1C2CCC(CC1c1cccc(/C=C\I)c1)N2 (centres undefined),0.28

# Test system: not listed separately
# Test: Ratio of drug uptake in midbrain to cerebellum in anesthetized cynomolgus monkey after 215 mins postinjection
# Type: ADME, organism-based, Macaca fascicularis
# Details: in vivo
row,Compound,Ratio
1,O=C(OCC[18F])C1C2CCC(CC1c1cccc(/C=C\I)c1)N2 (centres undefined),2.2

# Test system: Putamen
# Test: Drug uptake in anesthetized cynomolgus monkey brain putamen after 2.5 mins postinjection
# Type: ADME, organism-based, Macaca fascicularis
# Details: in vivo
row,Compound,Drug uptake
1,O=C(OCC[18F])C1C2CCC(CC1c1cccc(/C=C\I)c1)N2 (centres undefined),0.44

# Test system: not listed separately
# Test: Drug uptake in anesthetized cynomolgus monkey brain occipital lobe after 215 mins postinjection
# Type: ADME, organism-based, Macaca fascicularis
# Details: in vivo
row,Compound,Drug uptake
1,O=C(OCC[18F])C1C2CCC(CC1c1cccc(/C=C\I)c1)N2 (centres undefined),1.28

# Test system: Pons
# Test: Drug uptake in anesthetized cynomolgus monkey brain pons after 85 mins postinjection
# Type: ADME, organism-based, Macaca fascicularis
# Details: in vivo
row,Compound,Drug uptake
1,O=C(OCC[18F])C1C2CCC(CC1c1cccc(/C=C\I)c1)N2 (centres undefined),3.13

# Test system: Putamen
# Test: Drug uptake in anesthetized cynomolgus monkey brain putamen after 85 mins postinjection
# Type: ADME, organism-based, Macaca fascicularis
# Design: unit not given here
# Details: in vivo
row,Compound,Drug uptake
1,O=C(OCC[18F])C1C2CCC(CC1c1cccc(/C=C\I)c1)N2 (centres undefined),4.16

# Test system: not listed separately
# Test: Drug uptake in anesthetized cynomolgus monkey brain cerebellum after 95 mins postinjection
# Type: ADME, organism-based, Macaca fascicularis
# Details: in vivo
row,Compound,Drug uptake
1,O=C(OCC[18F])C1C2CCC(CC1c1cccc(/C=C\I)c1)N2 (centres undefined),2.61

# Test system: Putamen
# Test: Drug uptake in anesthetized cynomolgus monkey brain putamen after 75 mins postinjection
# Type: ADME, organism-based, Macaca fascicularis
# Design: unit not given here
# Details: in vivo, 1.25 h
row,Compound,Drug uptake
1,O=C(OCC[18F])C1C2CCC(CC1c1cccc(/C=C\I)c1)N2 (centres undefined),4.28

# Test system: Caudate
# Test: Drug uptake in anesthetized cynomolgus monkey brain caudate after 165 mins postinjection
# Type: ADME, organism-based, Macaca fascicularis, Caudate nucleus
# Details: in vivo, 2.75 h
row,Compound,Drug uptake
1,O=C(OCC[18F])C1C2CCC(CC1c1cccc(/C=C\I)c1)N2 (centres undefined),2.56

# Test system: Putamen
# Test: Drug uptake in anesthetized cynomolgus monkey brain putamen after 125 mins postinjection
# Type: ADME, organism-based, Macaca fascicularis
# Details: in vivo
row,Compound,Drug uptake
1,O=C(OCC[18F])C1C2CCC(CC1c1cccc(/C=C\I)c1)N2 (centres undefined),3.58

# Test system: not listed separately
# Test: Ratio of drug uptake in frontal lobe to cerebellum in anesthetized cynomolgus monkey after 3.5 mins postinjection
# Type: ADME, organism-based, Macaca fascicularis
# Details: in vivo
row,Compound,Ratio
1,O=C(OCC[18F])C1C2CCC(CC1c1cccc(/C=C\I)c1)N2 (centres undefined),0.6

# Test system: Medulla
# Test: Drug uptake in anesthetized cynomolgus monkey brain medulla after 18.5 mins postinjection
# Type: ADME, organism-based, Macaca fascicularis
# Details: in vivo
row,Compound,Drug uptake
1,O=C(OCC[18F])C1C2CCC(CC1c1cccc(/C=C\I)c1)N2 (centres undefined),3.61

# Test system: Caudate
# Test: Drug uptake in anesthetized cynomolgus monkey brain caudate after 2.5 mins postinjection
# Type: ADME, organism-based, Macaca fascicularis, Caudate nucleus
# Details: in vivo
row,Compound,Drug uptake
1,O=C(OCC[18F])C1C2CCC(CC1c1cccc(/C=C\I)c1)N2 (centres undefined),0.37

# Test system: Thalamus
# Test: Drug uptake in anesthetized cynomolgus monkey brain thalamus after 12.5 mins postinjection
# Type: ADME, organism-based, Macaca fascicularis
# Design: unit not given here
# Details: in vivo
row,Compound,Drug uptake
1,O=C(OCC[18F])C1C2CCC(CC1c1cccc(/C=C\I)c1)N2 (centres undefined),3.32

# Test system: Pons
# Test: Drug uptake in anesthetized cynomolgus monkey brain pons after 0.5 mins postinjection
# Type: ADME, organism-based, Macaca fascicularis
# Details: in vivo
row,Compound,Drug uptake
1,O=C(OCC[18F])C1C2CCC(CC1c1cccc(/C=C\I)c1)N2 (centres undefined),0

# Test system: Medulla
# Test: Drug uptake in anesthetized cynomolgus monkey brain medulla after 65 mins postinjection
# Type: ADME, organism-based, Macaca fascicularis
# Details: in vivo
row,Compound,Drug uptake
1,O=C(OCC[18F])C1C2CCC(CC1c1cccc(/C=C\I)c1)N2 (centres undefined),3.97

# Test system: Midbrain
# Test: Drug uptake in anesthetized cynomolgus monkey brain midbrain after 125 mins postinjection
# Type: ADME, organism-based, Macaca fascicularis
# Design: unit not given here
# Details: in vivo
row,Compound,Drug uptake
1,O=C(OCC[18F])C1C2CCC(CC1c1cccc(/C=C\I)c1)N2 (centres undefined),4.08

# Test system: Pons
# Test: Drug uptake in anesthetized cynomolgus monkey brain pons after 27.5 mins postinjection
# Type: ADME, organism-based, Macaca fascicularis
# Details: in vivo
row,Compound,Drug uptake
1,O=C(OCC[18F])C1C2CCC(CC1c1cccc(/C=C\I)c1)N2 (centres undefined),3.21

# Test system: Thalamus
# Test: Drug uptake in anesthetized cynomolgus monkey brain thalamus after 235 mins postinjection
# Type: ADME, organism-based, Macaca fascicularis
# Design: unit not given here
# Details: in vivo
row,Compound,Drug uptake
1,O=C(OCC[18F])C1C2CCC(CC1c1cccc(/C=C\I)c1)N2 (centres undefined),2.2

# Test system: not listed separately
# Test: Drug uptake in anesthetized cynomolgus monkey brain frontal lobe after 165 mins postinjection
# Type: ADME, organism-based, Macaca fascicularis
# Details: in vivo, 2.75 h
row,Compound,Drug uptake
1,O=C(OCC[18F])C1C2CCC(CC1c1cccc(/C=C\I)c1)N2 (centres undefined),1.81

# Test system: Thalamus
# Test: Drug uptake in anesthetized cynomolgus monkey brain thalamus after 215 mins postinjection
# Type: ADME, organism-based, Macaca fascicularis
# Design: unit not given here
# Details: in vivo
row,Compound,Drug uptake
1,O=C(OCC[18F])C1C2CCC(CC1c1cccc(/C=C\I)c1)N2 (centres undefined),2.38

# Test system: Caudate
# Test: Drug uptake in anesthetized cynomolgus monkey brain caudate after 175 mins postinjection
# Type: ADME, organism-based, Macaca fascicularis, Caudate nucleus
# Details: in vivo
row,Compound,Drug uptake
1,O=C(OCC[18F])C1C2CCC(CC1c1cccc(/C=C\I)c1)N2 (centres undefined),2.43

# Test system: not listed separately
# Test: Ratio of drug uptake in putamen to cerebellum in anesthetized cynomolgus monkey after 155 mins postinjection
# Type: ADME, organism-based, Macaca fascicularis
# Details: in vivo
row,Compound,Ratio
1,O=C(OCC[18F])C1C2CCC(CC1c1cccc(/C=C\I)c1)N2 (centres undefined),1.8

# Test system: Caudate
# Test: Drug uptake in anesthetized cynomolgus monkey brain caudate after 15.5 mins postinjection
# Type: ADME, organism-based, Macaca fascicularis, Caudate nucleus
# Details: in vivo
row,Compound,Drug uptake
1,O=C(OCC[18F])C1C2CCC(CC1c1cccc(/C=C\I)c1)N2 (centres undefined),2.94

# Test system: not listed separately
# Test: Drug uptake in anesthetized cynomolgus monkey brain frontal lobe after 65 mins postinjection
# Type: ADME, organism-based, Macaca fascicularis
# Details: in vivo
row,Compound,Drug uptake
1,O=C(OCC[18F])C1C2CCC(CC1c1cccc(/C=C\I)c1)N2 (centres undefined),2.78

# Test system: not listed separately
# Test: Drug uptake in anesthetized cynomolgus monkey brain frontal lobe after 45 mins postinjection
# Type: ADME, organism-based, Macaca fascicularis
# Details: in vivo, 0.75 h
row,Compound,Drug uptake
1,O=C(OCC[18F])C1C2CCC(CC1c1cccc(/C=C\I)c1)N2 (centres undefined),2.95

# Test system: not listed separately
# Test: Ratio of drug uptake in thalamus to cerebellum in anesthetized cynomolgus monkey after 95 mins postinjection
# Type: ADME, organism-based, Macaca fascicularis
# Details: in vivo
row,Compound,Ratio
1,O=C(OCC[18F])C1C2CCC(CC1c1cccc(/C=C\I)c1)N2 (centres undefined),1.5

# Test system: Caudate
# Test: Drug uptake in anesthetized cynomolgus monkey brain caudate after 3.5 mins postinjection
# Type: ADME, organism-based, Macaca fascicularis, Caudate nucleus
# Details: in vivo
row,Compound,Drug uptake
1,O=C(OCC[18F])C1C2CCC(CC1c1cccc(/C=C\I)c1)N2 (centres undefined),0.79

# Test system: not listed separately
# Test: Ratio of drug uptake in pons to cerebellum in anesthetized cynomolgus monkey after 105 mins postinjection
# Type: ADME, organism-based, Macaca fascicularis
# Details: in vivo, 1.75 h
row,Compound,Ratio
1,O=C(OCC[18F])C1C2CCC(CC1c1cccc(/C=C\I)c1)N2 (centres undefined),1.3

# Test system: Midbrain
# Test: Drug uptake in anesthetized cynomolgus monkey brain midbrain after 85 mins postinjection
# Type: ADME, organism-based, Macaca fascicularis
# Design: unit not given here
# Details: in vivo
row,Compound,Drug uptake
1,O=C(OCC[18F])C1C2CCC(CC1c1cccc(/C=C\I)c1)N2 (centres undefined),4.67

# Test system: Putamen
# Test: Drug uptake in anesthetized cynomolgus monkey brain putamen after 3.5 mins postinjection
# Type: ADME, organism-based, Macaca fascicularis
# Details: in vivo
row,Compound,Drug uptake
1,O=C(OCC[18F])C1C2CCC(CC1c1cccc(/C=C\I)c1)N2 (centres undefined),0.96

# Test system: Medulla
# Test: Drug uptake in anesthetized cynomolgus monkey brain medulla after 175 mins postinjection
# Type: ADME, organism-based, Macaca fascicularis
# Details: in vivo
row,Compound,Drug uptake
1,O=C(OCC[18F])C1C2CCC(CC1c1cccc(/C=C\I)c1)N2 (centres undefined),2.78

# Test system: not listed separately
# Test: Drug uptake in anesthetized cynomolgus monkey brain cerebellum after 225 mins postinjection
# Type: ADME, organism-based, Macaca fascicularis
# Details: in vivo, 3.75 h
row,Compound,Drug uptake
1,O=C(OCC[18F])C1C2CCC(CC1c1cccc(/C=C\I)c1)N2 (centres undefined),1.26

# Test system: not listed separately
# Test: Drug uptake in anesthetized cynomolgus monkey brain occipital lobe after 65 mins postinjection
# Type: ADME, organism-based, Macaca fascicularis
# Details: in vivo
row,Compound,Drug uptake
1,O=C(OCC[18F])C1C2CCC(CC1c1cccc(/C=C\I)c1)N2 (centres undefined),2.86

# Test system: not listed separately
# Test: Drug uptake in anesthetized cynomolgus monkey brain occipital lobe after 6.5 mins postinjection
# Type: ADME, organism-based, Macaca fascicularis
# Design: unit not given here
# Details: in vivo
row,Compound,Drug uptake
1,O=C(OCC[18F])C1C2CCC(CC1c1cccc(/C=C\I)c1)N2 (centres undefined),2

# Test system: not listed separately
# Test: Drug uptake in anesthetized cynomolgus monkey brain cerebellum after 1.5 mins postinjection
# Type: ADME, organism-based, Macaca fascicularis
# Details: in vivo, 0.025 h
row,Compound,Drug uptake
1,O=C(OCC[18F])C1C2CCC(CC1c1cccc(/C=C\I)c1)N2 (centres undefined),0.11
